From US10472356B2, “Bicyclic ketone sulfonamide compounds” (AMGEN INC., priority 2015, dated 2019)

Columns and labels:
Assay type in all cases: cell-based
human Nav1.7 [1] = biological target: T1, human Nav1.7 (Homo sapiens, UniProt Q15858); test: Nav 1.7 In Vitro PatchXpress (PX) Assay; settings: HEK 293 cells stably transfected with human Nav1.7; PatchXpress whole cell voltage clamp; partially inactivated state (holding potential yielding 20 to 50% inactivation); read-out: hNav1.7 PX IC50
T1 construct: expressed in transfected cells; host or cells: HEK293
T1 sequence (Q15858 whole entry): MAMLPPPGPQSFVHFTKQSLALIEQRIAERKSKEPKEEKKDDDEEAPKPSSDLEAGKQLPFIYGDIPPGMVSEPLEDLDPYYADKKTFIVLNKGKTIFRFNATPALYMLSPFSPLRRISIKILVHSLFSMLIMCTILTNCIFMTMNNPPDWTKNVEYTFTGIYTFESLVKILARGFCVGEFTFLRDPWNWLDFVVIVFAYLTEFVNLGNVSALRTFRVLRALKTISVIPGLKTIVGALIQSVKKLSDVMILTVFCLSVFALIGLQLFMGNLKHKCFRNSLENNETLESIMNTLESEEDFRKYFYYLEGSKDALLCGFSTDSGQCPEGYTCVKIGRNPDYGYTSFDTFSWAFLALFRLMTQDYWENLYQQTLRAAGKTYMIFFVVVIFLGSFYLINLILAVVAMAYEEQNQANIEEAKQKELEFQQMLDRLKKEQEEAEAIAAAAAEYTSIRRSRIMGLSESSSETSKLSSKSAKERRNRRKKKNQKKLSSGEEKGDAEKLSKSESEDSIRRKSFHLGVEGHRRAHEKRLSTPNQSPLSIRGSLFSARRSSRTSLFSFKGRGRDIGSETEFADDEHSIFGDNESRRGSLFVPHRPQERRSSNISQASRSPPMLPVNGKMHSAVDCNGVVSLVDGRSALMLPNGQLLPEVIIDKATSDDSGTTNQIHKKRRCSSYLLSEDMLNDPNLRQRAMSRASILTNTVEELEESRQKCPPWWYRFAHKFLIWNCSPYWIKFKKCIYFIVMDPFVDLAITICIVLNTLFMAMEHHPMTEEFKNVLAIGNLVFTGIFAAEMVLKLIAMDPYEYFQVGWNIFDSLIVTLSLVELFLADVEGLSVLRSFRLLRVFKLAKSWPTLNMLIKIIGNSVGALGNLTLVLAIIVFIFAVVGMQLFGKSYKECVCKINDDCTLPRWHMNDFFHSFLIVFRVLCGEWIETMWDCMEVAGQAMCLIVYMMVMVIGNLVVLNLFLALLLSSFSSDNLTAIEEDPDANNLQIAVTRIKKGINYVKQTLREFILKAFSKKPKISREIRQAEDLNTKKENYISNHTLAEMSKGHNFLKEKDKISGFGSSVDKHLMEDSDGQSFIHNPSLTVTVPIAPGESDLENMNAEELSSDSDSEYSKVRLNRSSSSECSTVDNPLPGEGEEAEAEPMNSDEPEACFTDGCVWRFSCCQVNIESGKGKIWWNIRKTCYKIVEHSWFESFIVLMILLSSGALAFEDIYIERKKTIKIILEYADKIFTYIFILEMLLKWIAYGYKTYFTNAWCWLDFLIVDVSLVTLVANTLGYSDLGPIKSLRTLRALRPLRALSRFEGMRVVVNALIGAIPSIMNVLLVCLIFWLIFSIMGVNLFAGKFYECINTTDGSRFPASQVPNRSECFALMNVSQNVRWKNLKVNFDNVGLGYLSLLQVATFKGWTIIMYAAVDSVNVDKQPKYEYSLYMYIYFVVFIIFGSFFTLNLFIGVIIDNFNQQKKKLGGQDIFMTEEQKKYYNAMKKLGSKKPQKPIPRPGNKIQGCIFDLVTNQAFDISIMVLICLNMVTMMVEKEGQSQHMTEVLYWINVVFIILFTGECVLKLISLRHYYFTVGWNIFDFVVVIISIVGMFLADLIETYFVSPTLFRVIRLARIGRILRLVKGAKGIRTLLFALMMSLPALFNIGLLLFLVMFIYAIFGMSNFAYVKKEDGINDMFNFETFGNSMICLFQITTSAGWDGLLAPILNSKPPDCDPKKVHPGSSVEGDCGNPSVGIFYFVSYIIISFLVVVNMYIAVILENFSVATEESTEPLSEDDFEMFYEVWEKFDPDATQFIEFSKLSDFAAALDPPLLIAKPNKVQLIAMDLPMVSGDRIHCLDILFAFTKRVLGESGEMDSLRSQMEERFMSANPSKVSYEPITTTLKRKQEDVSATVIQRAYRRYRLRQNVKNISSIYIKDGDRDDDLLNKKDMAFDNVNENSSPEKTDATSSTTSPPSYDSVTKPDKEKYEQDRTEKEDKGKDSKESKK
Procedure, shortened: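 Whole-cell voltage clamp on HEK 293 cells stably expressing human Nav1.7 (automated patch), holding potential giving 20–50% inactivation; 20 ms pulses to −10 mV at 0.1 Hz. Single compound concentration applied 3 min, peak current inhibition measured; IC50 fitted from 3–5 cells per concentration.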

human Nav1.7 [2] = biological target: T1, human Nav1.7; test: Nav 1.7 IWQ In Vitro Assay (IonWorks Quattro); settings: HEK293 cells stably transfected with human Nav 1.7; IonWorks Quattro population patch-clamp; 26th pulse to −20 mV, 5 Hz; cells unclamped 5 to 8 minutes with compound; read-out: hNav1.7 IWQ IC50
Procedure, shortened: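 Population patch clamp on HEK293 cells stably expressing human Nav 1.7: held at −110 mV for three seconds, then 26 pulses of 150 msec to −20 mV at 5 Hz, before and after 5-8 min with one compound concentration. Percent inhibition from peak current at the 26th pulse.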

human Nav1.7 [3] = biological target: T1, human Nav1.7; test: Nav 1.7 IWB In Vitro Assay (IonWorks Barracuda); settings: HEK293 cells stably transfected with human Nav 1.7; IonWorks Barracuda population patch-clamp; cells clamped to −20 mV for 4 minutes with compound; 26th pulse; read-out: hNav1.7 IWB IC50
Procedure, shortened: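 Population patch clamp of HEK293 cells stably expressing human Nav 1.7: 26 pulses to −20 mV (150 ms, 5 Hz) from −110 mV, then 4 min at −20 mV with compound, 3 s recovery at −110 mV and the train repeated. % inhibition of 26th-pulse peak current vs no compound; IC50 from concentration-response curves.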

Structure (SMILES) | IC50 (human Nav1.7 [1]) [nM] | IC50 (human Nav1.7 [2]) [nM] | IC50 (human Nav1.7 [3]) [nM]
COc1cc(-c2cc(F)cc(F)c2)c(F)cc1-n1c2c(ccc1=O)CN(S(=O)(=O)Nc1ccon1)[C@H](C)C2 [Example 3-D-P, P-(7R)-N-3-isoxazolyl-7-methyl-2-oxo-1-(2,3′,5′-trifluoro-5-methoxy-4-biphenylyl)-1,5,7,8-tetrahydro-1,6-naphthyridine-6(2H)-sulfonamide] | 230 | 40.5 | 40
COc1cc(-c2cccc(OCC(F)(F)F)c2)c(F)cc1-n1c2c(ccc1=O)CN(S(=O)(=O)Nc1cccnn1)CC2 [Example 68, P-1-(2-fluoro-5-methoxy-3′-(2,2,2-trifluoroethoxy)-[1,1′-biphenyl]-4-yl)-2-oxo-N-(pyridazin-3-yl)-1,2,7,8-tetrahydro-1,6-naphthyridine-6(5H)-sulfonamide] | 74.2 | 2.4 | 5.3
COc1cc(-c2cc(Cl)cc(OC(F)(F)F)c2)c(F)cc1-n1c2c(ccc1=O)CN(S(=O)(=O)Nc1cccnn1)CC2 [Example 77, P-1-(3′-chloro-2-fluoro-5-methoxy-5′-(trifluoromethoxy)-[1,1′-biphenyl]-4-yl)-2-oxo-N-(pyridazin-3-yl)-1,2,7,8-tetrahydro-1,6-naphthyridine-6(5H)-sulfonamide] | 40.5 | 1.3 | 4.4
COc1cc(OC)cc(-c2cc(OC)c(-n3c4c(ccc3=O)CN(S(=O)(=O)Nc3ccon3)CC4)cc2F)c1 [Example 90, P-1-(2-fluoro-3′,5,5′-trimethoxy-[1,1′-biphenyl]-4-yl)-N-(isoxazol-3-yl)-2-oxo-1,2,7,8-tetrahydro-1,6-naphthyridine-6(5H)-sulfonamide] | 164 | 3.2 | 36.5

Stronger by IC50 (human Nav1.7 [1]), values ahead:

IC50 (human Nav1.7 [1]) [nM] | IC50 (human Nav1.7 [2]) [nM] | IC50 (human Nav1.7 [3]) [nM] | Structure (SMILES)
37.1 | 2.3 | 3.8 | COc1cc(-c2cccc(OC(F)(F)F)c2)c(F)cc1-n1c2c(ccc1=O)CN(S(=O)(=O)Nc1cccnn1)CC2 [Example 66, P-1-(2-fluoro-5-methoxy-3′-(trifluoromethoxy)-[1,1′-biphenyl]-4-yl)-2-oxo-N-(pyridazin-3-yl)-1,2,7,8-tetrahydro-1,6-naphthyridine-6(5H)-sulfonamide]
29.4 | 2.8 | 6.9 | COc1cc(-c2ccc(F)c(C(F)(F)F)c2)c(F)cc1-n1c2c(ccc1=O)CN(S(=O)(=O)Nc1cccnn1)CC2 [Example 71, P-1-(2,4′-difluoro-5-methoxy-3′-(trifluoromethyl)-[1,1′-biphenyl]-4-yl)-2-oxo-N-(pyridazin-3-yl)-1,2,7,8-tetrahydro-1,6-naphthyridine-6(5H)-sulfonamide]
19.9 | 1.3 | 8.8 | COc1cc(Cl)cc(-c2cc(OC)c(-n3c4c(ccc3=O)CN(S(=O)(=O)Nc3ccon3)CC4)cc2F)c1 [Example 89, P-1-(3′-chloro-2-fluoro-5,5′-dimethoxy-[1,1′-biphenyl]-4-yl)-N-(isoxazol-3-yl)-2-oxo-1,2,7,8-tetrahydro-1,6-naphthyridine-6(5H)-sulfonamide]
